Data: patent US7135493B2, “HDAC inhibitor” (Astellas Pharma Inc., priority 2003, dated 2006)
pIC50: −log10 of the molar value.

Columns and labels:
[1] = system: splenic cells of Lewis rats; assay: Test 2: Determination of T-cell growth inhibitor activity (T lymphocyte blastogenesis, Concanavalin A, AlamarBlue); type: cell-based; conditions: Lewis rat splenic cells, 72 hours, AlamarBlue Assay, read-out: Test 2: T-cell growth inhibitory activity IC50
Procedure: Test 2: Determination of T-Cell Growth Inhibitor Activity
The T lymphocyte blastogenesis test was performed in microtiter plates with each well containing 1.5×10^5 splenic cells of Lewis rats in 0.1 mL RPMI-1640 medium supplemented with 10% fetal bovine serum-(FBS), […] 2-mercaptoethanol, penicilln (100 units/mL) and streptomycin (100 μg/mL), to which Concanavalin A ([…]) was added. The cells were incubated at 37° C. in a humidified atmosphere of 5% CO2 for 72 hours. After the culture period, suppressive activities of the test compounds in T lymphocyte blastogenesis were quantified by AlamarBlue (trademark) Assay. The test samples were dissolved in DMSO and further diluted with RPMI-1640 medium and added to the culture. The activities of the test compounds were expressed as IC50.

[2] = target: human histone deacetylase; assay: Test 1: Determination of histone deacetylase inhibitor activity ([3H]acetyl histone deacetylation); type: biochemical; conditions: human histone deacetylase partially purified from Jurkat cells; [3H]acetyl-labeled histones, 25° C., 30 minutes; read-out: Test 1: HDAC inhibitory activity IC50
Procedure: Test 1: Determination of Histone Deacetylase Inhibitor Activity
The partial purification of human histone deacetylase, the preparation of [^3H] acetyl histones, and the assay for histone deacetylase activity were performed basically according to the method as proposed by Yoshida et al. as follows.
Partial Purification of Human Histone Deacetylase
The human histone deacetylase was partially purified from human T cell leukemia Jurkat cells. Jurkat cells (5×10^8 cells) were suspended in 40 mL of the HDA buffer consisting of 15 mM potassium phosphate, pH 7.5, 5% glycerol and 0.2 mM EDTA. After homogenization, nuclei were collected by centrifugation (35,000×g, 10 min) and homogenized in 20 mL of the same buffer supplemented with 1 M (NH4)2SO4. The viscous homogenate was sonicated and clarified by centrifugation (35,000×g, 10 min), and the deacetylase was precipitated by raising the concentration of (NH4)2SO4 to 3.5 M. The precipitated protein was dissolved in 10 mL of the HDA buffer and dialyzed against 4 liters of the same buffer. The dialyzate was then loaded onto a DEAE-cellulose (Whatman DE52) column (25×85 mm) equilibrated with the same buffer and eluted with 300 mL of a linear gradient (0–0.6 M) of NaCl. A single peak of histone deacetylase activity appeared between 0.3 and 0.4 M NaCl.
Preparation of [^3H] Acetyl Histone
To obtain [^3H] acetyl-labeled histone as the substrate for the histone deacetylase assay, 1×10^8 cells of Jurkat in 20 mL of RPMI-1640 medium (supplemented with 10% FBS, penicillin (50 units/mL) and streptomycin (50 μg/mL)) were incubated with 300 MBq [^3H] sodium acetate in the presence of 5 mM sodium butyrate for 30 minutes in 5% CO2-95% air atmosphere at 37° C. in a 75 cm^2 flask, harvested into a centrifuge tube (50 mL), collected by centrifugation at 1000 rpm for 10 minutes, and washed once with phosphate-buffered saline. The washed cells were suspended in 15 mL of ice-cold lysis buffer (10 mM Tris-HCl, 50 mM sodium bisulfite, 1% Triton X-100, 10 mM MgCl2, 8.6% sucrose, pH 6.5). After Dounce homogenization (30 stroke), the nuclei were collected by centrifugation at 1000 rpm for 10 minutes, washed 3 times with 15 mL of the lysis buffer, and once with 15 mL of ice-cooled washing buffer (10 mM Tris-HCl, 13 mM EDTA, pH 7.4) successively. […]
For the standard assay, 10 μl of [^3H] acetyl-labeled histones were added to 90 μl of the enzyme fraction, and the mixture was incubated at 25° C. for 30 minutes. […] The released [^3H] acetic acid was extracted with 1 mL of ethyl acetate, and 0.9 mL of the solvent layer was taken into 10 mL of toluene scintillation solution for determination of radioactivity.

pIC50 [2]	SMILES	pIC50 [1]
7.55	O=C(/C=C/c1ccc(Cc2nc3ccccc3[nH]2)cc1)NO [Compound E1]	7.16
6.85	O=C(/C=C/c1ccc(CCc2nc3ccccc3[nH]2)cc1)NO [Compound E3]	6.80
6.82	O=C(/C=C/c1cccc(Cc2nc3ccccc3[nH]2)c1)NO [Compound E6]	6.82
7.02	O=C(/C=C/c1ccc(C(Cc2ccccc2)c2nc3ccccc3n2Cc2ccccc2)cc1)NO (centres unmarked) [Compound E5]	6.51
